Data as given in PubChem BioAssay (NCI).
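Five compound concentrations were applied to cells in 96-well plates for 48 hours; endpoints were derived by simple linear interpolation of the resulting dose-response curve. The concentration for 50% growth inhibition is given as GI50. At the TGI there is no net growth.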

Columns and labels:
Assay in all cases: NCI-60 cell line screen, 48 h
HCT-116 colon = test system: HCT-116 colon
A549 NSCLC = test system: A549 NSCLC
HT29 colon = test system: HT29 colon
PC-3 prostate = test system: PC-3 prostate
NCI-H226 lung = test system: NCI-H226 lung
SNB-19 CNS = test system: SNB-19 CNS
LOX IMVI melanoma = test system: LOX IMVI melanoma
MDA-MB-231 breast = test system: MDA-MB-231 breast
TK-10 renal = test system: TK-10 renal
BT-549 breast = test system: BT-549 breast
MALME-3M melanoma = test system: MALME-3M melanoma
SF-268 CNS = test system: SF-268 CNS
KM12 colon = test system: KM12 colon
IGROV1 ovarian = test system: IGROV1 ovarian
SW-620 colon = test system: SW-620 colon
NCI-H460 lung = test system: NCI-H460 lung
U251 CNS = test system: U251 CNS
OVCAR-5 ovarian = test system: OVCAR-5 ovarian
HOP-62 NSCLC = test system: HOP-62 NSCLC
UO-31 renal = test system: UO-31 renal
MCF7 breast = test system: MCF7 breast
HL-60(TB) leukemia = test system: HL-60(TB) leukemia
SK-MEL-2 melanoma = test system: SK-MEL-2 melanoma
NCI/ADR-RES ovarian = test system: NCI/ADR-RES ovarian
A498 renal = test system: A498 renal
MOLT-4 leukemia = test system: MOLT-4 leukemia
SN12C renal = test system: SN12C renal
UACC-62 melanoma = test system: UACC-62 melanoma
SR leukemia = test system: SR leukemia
MDA-MB-435 = test system: MDA-MB-435
COLO 205 colon = test system: COLO 205 colon
SF-539 CNS = test system: SF-539 CNS
SK-MEL-5 melanoma = test system: SK-MEL-5 melanoma
NCI-H23 lung = test system: NCI-H23 lung
OVCAR-4 ovarian = test system: OVCAR-4 ovarian
OVCAR-8 ovarian = test system: OVCAR-8 ovarian
OVCAR-3 ovarian = test system: OVCAR-3 ovarian
HS 578T breast = test system: HS 578T breast
SK-MEL-28 melanoma = test system: SK-MEL-28 melanoma
NCI-H522 lung = test system: NCI-H522 lung
UACC-257 melanoma = test system: UACC-257 melanoma
HCC-2998 colon = test system: HCC-2998 colon
RXF 393 renal = test system: RXF 393 renal
M14 melanoma = test system: M14 melanoma
EKVX NSCLC = test system: EKVX NSCLC
CAKI-1 renal = test system: CAKI-1 renal
786-0 renal = test system: 786-0 renal
SNB-75 CNS = test system: SNB-75 CNS
RPMI-8226 leukemia = test system: RPMI-8226 leukemia
HCT-15 colon = test system: HCT-15 colon
DU-145 prostate = test system: DU-145 prostate
SF-295 CNS = test system: SF-295 CNS
ACHN renal = test system: ACHN renal
HOP-92 NSCLC = test system: HOP-92 NSCLC
SK-OV-3 ovarian = test system: SK-OV-3 ovarian
CCRF-CEM leukemia = test system: CCRF-CEM leukemia
K-562 leukemia = test system: K-562 leukemia

O=c1c2cc(F)ccc2sc2c(N3CCNCC3)nc3ccccc3c12
GI50 (HCT-116 colon): 1.59 µM
TGI (HCT-116 colon): 3.01 µM
GI50 (A549 NSCLC): 1.65 µM
TGI (A549 NSCLC): 3.54 µM
GI50 (HT29 colon): 1.64 µM
TGI (HT29 colon): 3.35 µM
GI50 (PC-3 prostate): 1.61 µM
TGI (PC-3 prostate): 3.1 µM
GI50 (NCI-H226 lung): 1.82 µM
TGI (NCI-H226 lung): 3.48 µM
GI50 (SNB-19 CNS): 1.61 µM
TGI (SNB-19 CNS): 3.04 µM
GI50 (LOX IMVI melanoma): 1.59 µM
TGI (LOX IMVI melanoma): 3.02 µM
GI50 (MDA-MB-231 breast): 1.39 µM
TGI (MDA-MB-231 breast): 2.78 µM
GI50 (TK-10 renal): 1.69 µM
TGI (TK-10 renal): 3.24 µM
GI50 (BT-549 breast): 7.76 µM
TGI (BT-549 breast): 20.9 µM
GI50 (MALME-3M melanoma): 1.64 µM
TGI (MALME-3M melanoma): 3.22 µM
GI50 (SF-268 CNS): 1.55 µM
TGI (SF-268 CNS): 3.18 µM
GI50 (KM12 colon): 1.72 µM
TGI (KM12 colon): 3.34 µM
GI50 (IGROV1 ovarian): 1.5 µM
TGI (IGROV1 ovarian): 3.02 µM
GI50 (SW-620 colon): 1.51 µM
TGI (SW-620 colon): 3.01 µM
GI50 (NCI-H460 lung): 1.49 µM
TGI (NCI-H460 lung): 2.99 µM
GI50 (U251 CNS): 1.57 µM
TGI (U251 CNS): 3.42 µM
GI50 (OVCAR-5 ovarian): 1.67 µM
TGI (OVCAR-5 ovarian): 3.08 µM
GI50 (HOP-62 NSCLC): 1.61 µM
TGI (HOP-62 NSCLC): 3.44 µM
GI50 (UO-31 renal): 1.37 µM
TGI (UO-31 renal): 2.71 µM
GI50 (MCF7 breast): 1.7 µM
TGI (MCF7 breast): 3.27 µM
GI50 (HL-60(TB) leukemia): 1.9 µM
TGI (HL-60(TB) leukemia): 3.72 µM
GI50 (SK-MEL-2 melanoma): 2.01 µM
TGI (SK-MEL-2 melanoma): 4 µM
GI50 (NCI/ADR-RES ovarian): 1.69 µM
TGI (NCI/ADR-RES ovarian): 3.22 µM
GI50 (A498 renal): 1.44 µM
TGI (A498 renal): 2.91 µM
GI50 (MOLT-4 leukemia): 1.7 µM
TGI (MOLT-4 leukemia): 3.56 µM
GI50 (SN12C renal): 1.59 µM
TGI (SN12C renal): 3.04 µM
GI50 (UACC-62 melanoma): 1.69 µM
TGI (UACC-62 melanoma): 3.09 µM
GI50 (SR leukemia): 1.54 µM
TGI (SR leukemia): 4.14 µM
GI50 (MDA-MB-435): 1.65 µM
TGI (MDA-MB-435): 3.05 µM
GI50 (COLO 205 colon): 1.75 µM
TGI (COLO 205 colon): 4.03 µM
GI50 (SF-539 CNS): 1.63 µM
TGI (SF-539 CNS): 3.05 µM
GI50 (SK-MEL-5 melanoma): 1.76 µM
TGI (SK-MEL-5 melanoma): 3.18 µM
GI50 (NCI-H23 lung): 1.78 µM
TGI (NCI-H23 lung): 3.27 µM
GI50 (OVCAR-4 ovarian): 1.74 µM
TGI (OVCAR-4 ovarian): 3.46 µM
GI50 (OVCAR-8 ovarian): 1.82 µM
TGI (OVCAR-8 ovarian): 4.08 µM
GI50 (OVCAR-3 ovarian): 1.66 µM
TGI (OVCAR-3 ovarian): 3.09 µM
GI50 (HS 578T breast): 1.53 µM
TGI (HS 578T breast): 3.31 µM
GI50 (SK-MEL-28 melanoma): 1.75 µM
TGI (SK-MEL-28 melanoma): 3.17 µM
GI50 (NCI-H522 lung): 1.86 µM
TGI (NCI-H522 lung): 3.72 µM
GI50 (UACC-257 melanoma): 1.99 µM
TGI (UACC-257 melanoma): 3.87 µM
GI50 (HCC-2998 colon): 1.65 µM
TGI (HCC-2998 colon): 3.05 µM
GI50 (RXF 393 renal): 1.29 µM
TGI (RXF 393 renal): 2.65 µM
GI50 (M14 melanoma): 1.78 µM
TGI (M14 melanoma): 3.27 µM
GI50 (EKVX NSCLC): 1.55 µM
TGI (EKVX NSCLC): 2.98 µM
GI50 (CAKI-1 renal): 1.59 µM
TGI (CAKI-1 renal): 2.93 µM
GI50 (786-0 renal): 1.45 µM
TGI (786-0 renal): 2.93 µM
GI50 (SNB-75 CNS): 1.43 µM
TGI (SNB-75 CNS): 2.8 µM
GI50 (RPMI-8226 leukemia): 1.77 µM
TGI (RPMI-8226 leukemia): 3.77 µM
GI50 (HCT-15 colon): 1.41 µM
TGI (HCT-15 colon): 2.85 µM
GI50 (DU-145 prostate): 1.69 µM
TGI (DU-145 prostate): 3.12 µM
GI50 (SF-295 CNS): 1.75 µM
TGI (SF-295 CNS): 3.17 µM
GI50 (ACHN renal): 1.56 µM
TGI (ACHN renal): 2.89 µM
GI50 (HOP-92 NSCLC): 0.867 µM
TGI (HOP-92 NSCLC): 2.22 µM

c1ccc2c(c1)nc1n2sc2nc3ccccc3n21
TGI (HCT-116 colon): > 100 µM
TGI (A549 NSCLC): > 100 µM
TGI (HT29 colon): > 100 µM
TGI (PC-3 prostate): > 100 µM
TGI (NCI-H226 lung): > 100 µM
TGI (LOX IMVI melanoma): > 100 µM
TGI (MDA-MB-231 breast): > 100 µM
TGI (TK-10 renal): > 100 µM
TGI (SK-OV-3 ovarian): > 100 µM
TGI (BT-549 breast): > 100 µM
TGI (SF-268 CNS): > 100 µM
TGI (KM12 colon): > 100 µM
TGI (IGROV1 ovarian): > 100 µM
TGI (SW-620 colon): > 100 µM
TGI (NCI-H460 lung): > 100 µM
TGI (U251 CNS): > 100 µM
TGI (OVCAR-5 ovarian): > 100 µM
TGI (UO-31 renal): > 100 µM
TGI (MCF7 breast): > 100 µM
TGI (HL-60(TB) leukemia): > 100 µM
TGI (SK-MEL-2 melanoma): > 100 µM
TGI (NCI/ADR-RES ovarian): > 100 µM
TGI (MOLT-4 leukemia): > 100 µM
TGI (SN12C renal): > 100 µM
TGI (UACC-62 melanoma): 79 µM
TGI (SR leukemia): > 100 µM
TGI (MDA-MB-435): > 100 µM
TGI (COLO 205 colon): > 100 µM
TGI (SF-539 CNS): > 100 µM
TGI (SK-MEL-5 melanoma): > 100 µM
TGI (NCI-H23 lung): > 100 µM
TGI (OVCAR-4 ovarian): > 100 µM
TGI (OVCAR-8 ovarian): > 100 µM
TGI (OVCAR-3 ovarian): > 100 µM
TGI (HS 578T breast): > 100 µM
TGI (SK-MEL-28 melanoma): > 100 µM
TGI (NCI-H522 lung): > 100 µM
TGI (UACC-257 melanoma): > 100 µM
TGI (HCC-2998 colon): > 100 µM
TGI (M14 melanoma): > 100 µM
TGI (EKVX NSCLC): > 100 µM
TGI (CAKI-1 renal): > 100 µM
TGI (786-0 renal): > 100 µM
TGI (RPMI-8226 leukemia): > 100 µM
TGI (HCT-15 colon): > 100 µM
TGI (CCRF-CEM leukemia): > 100 µM
TGI (DU-145 prostate): > 100 µM
TGI (SF-295 CNS): > 100 µM
TGI (HOP-92 NSCLC): > 100 µM
TGI (K-562 leukemia): > 100 µM
